Assay results reported in the NIST ThermoML archive (doi:10.1021/je050074w).

Assay: an = mass per volume of the nth substance listed, in kg/m3
Conditions: Wilhelmy plate method

CCCCCCCCCCCCOS(=O)(=O)[O-].[Na+] [sodium dodecyl sulfate] + O
surface tension liquid-gas [mN/m]
Conditions | a1 = 0.00627 | a1 = 0.0157 | a1 = 0.0273 | a1 = 0.0338
288.15 K | 71.99 | 65.28 | 64.13 | 69.24
289.15 K | 71.91 | 65.17 | 64.05 | 69.1
290.15 K | 71.74 | 65 | 63.88 | 68.89
291.15 K | 71.58 | 64.83 | 63.72 | 68.76
292.15 K | 71.41 | 64.67 | 63.56 | 68.59
293.15 K | 71.24 | 64.48 | 63.37 | 68.45
294.15 K | 71.07 | 64.32 | 63.19 | 68.28
295.15 K | 70.89 | 64.17 | 63.02 | 68.11
296.15 K | 70.76 | 64.03 | 62.88 | 67.97
297.15 K | 70.59 | 63.86 | 62.74 | 67.78
298.15 K | 70.43 | – | – | –
